Laboratory results reported in US8293240B2, “Method of treating drug-resistant cancer” (The Regents of the University of Colorado, priority 2004, dated 2012).

Legend:
[1] = tested on: B16F1 melanoma cells; test: intracellular reactive intermediates (DCFDA) in B16F1 melanoma cells; format: cell-based, mouse; details: B16F1, 48 hours, FIG. 19
Protocol: Metabolic Activity Assay. Cells were prepared as previously described. The specific metabolic dye was added and mixed into the cell suspension. This plate was then placed into the 37° incubator for a 20-minute incubation. After incubation, the cells were centrifuged at 300×g for 5 minutes, and the supernatant was removed. The cells were then washed once with PBS/2.5% FBS and transferred into flow cytometric tubes containing 500 μL of PBS/2.5% FBS for analysis.
5-(and -6)-Chloromethyl-2′,7′-dichlorodihydrofluorescein diacetate (CMH2DCFDA) (Molecular Probes). One vial of DCFda provides 10 tests and contains 50 μg. This is unstable and can't be stored. Therefore, each vial was opened and 43 μL of DMSO was added. […]
B16F1 melanoma cells were cultured at a concentration of 0.5 to 1 million cells per ml. Cells were harvested and analyzed by flow cytometry. […] Five thousand cells were assessed for forward scatter (FS), as a function of cell size, versus side scatter (SS), as a function of cellular granularity. […]
B16F1 melanoma cells of Example 12 were untreated or treated with etomoxir at the indicated concentrations for 48 hours. Cells were harvested, stained with DCFDA as described in Materials and Methods, and analyzed by flow cytometry. The value of DCFDA was then calculated as described in Materials and Methods.

[2] = tested on: A-204 human rhabdomyosarcoma cells; test: cell surface UCP2 expression on A-204 cells; format: cell-based; details: A-204, 24, 48, & 72 hours, FIG. 26
Protocol: Cell Surface Staining. Non-permeabilized cells were stained with antibodies to the cell surface receptors Fas (CD95) (Pharmingen) or with antibodies to uncoupling proteins (anti-UCP2 antibody) (Alpha Diagnostic International). Antibodies for both the isotype control and actual stain were added to the cell suspension, mixed, and then placed on ice for and incubation of 25 minutes in the dark. Subsequently the cells were centrifuged at 300×g for 5 minutes and the supernatant removed. The cells were washed one time with 100 μL of PBS/2.5% FBS and then transferred into flow cyotmetric tubes containing 500 μL of PBS/2.5% FBS for analysis.
A204 human rhabdomyosarcoma cells were cultured at a concentration of 0.5 to 1 million cells per ml. Cells were untreated or treated with etomoxir at concentrations indicated in FIG. 24 for 24, 48, & 72 hours. Cells were harvested and analyzed by flow cytometry. Dot plots are shown in FIG. 24 as functions of live versus dead cells. […] Five thousand cells were assessed for forward scatter (FS), as a function of cell size, versus side scatter (SS), as a function of cellular granularity. […]
Cells were untreated or treated with etomoxir at the concentration indicated in FIG. 26 at the indicated concentration for 24, 48, & 72 hours. Cells were harvested, stained with fluorochrome conjugated with anti-UCP2 antibody and analyzed by flow cytometry.

[3] = tested on: L1210 DDP cells; test: mitochondrial membrane potential (MitoTracker), L1210 DDP; format: cell-based; details: 24 hours of incubation, FIG. 11
Protocol: Flow Cytometry. Cells were harvested, counted, and resuspended at 10^6 cells/100 μl of PBS containing 2.5% fetal calf serum in preparation for flow cytometric analysis. Cells were stained for intracellular H202 using 6-carboxy-2′,7′-dichlorodihydrofluorescein diacetate (DCF-DA, Molecular Probes, Eugene, Oreg.). Briefly, cells were incubated at 37° with 1 mM DCF-DA for 20 minutes, washed twice in PBS containing 2.5% fetal calf serum and analyzed flow cytometrically. Mitochondrial membrane potential was assessed using Mitotracker Red (CM-H2XROS, Molecular Probes, Eugene, Oreg.). […] The cells were incubated at 37° for 20 minutes, washed twice in PBS containing 2.5% fetal calf serum and analyzed flow cytometrically. Data were acquired on a Coulter Elite Epics or Excel flow cytometer (Coulter, Hialeah, Fla.) and analyzed with CellQuest software, (Becton Dickinson, San Jose, Calif.). […] Each sample population was classified for cell size (forward scatter) and complexity (side scatter), gated on a population of interest and evaluated using 5,000 cells. […]
We measured the effects of etomoxir on metabolism by measuring mitochondrial membrane potential with a fluorescent dye (Mitotracker Red, Molecular Probes, Eugene, Oreg.) which fluoresces as a function of mitochondrial potential. […]

## CCOC(=O)C1(CCCCCCOc2ccc(Cl)cc2)CO1 (stereo not drawn) [etomoxir, 2-(6-(4-chlorophenoxy)-hexyl)-oxirane-2-carboxylic acid ethyl ester]
[1]
  reactive oxygen species as measured by DCFDA: dose dependent increase
[2]
  cell surface UCP2 expression in the live cells: time dependent “fold” increases
[3]
  mitochondrial membrane potential (MitoTracker): increase the mitochondrial membrane potential
